# Data as given in ChEMBL document CHEMBL4340549, “Design, synthesis and biological evaluation of isochroman-4-one hybrids bearing piperazine moiety as antihypertensive agent candidates” (Bioorg Med Chem, 2019).
# Columns and labels:
# Thoracic aorta [1] = test: Vasodilatory activity in Sprague-Dawley rat thoracic aorta assessed as inhibition of noradrenaline-induced contractions at 100 uM relative to untreated control; type: functional
# Thoracic aorta [2] = test: Vasodilatory activity in Sprague-Dawley rat thoracic aorta assessed as inhibition of noradrenaline-induced contractions at 10 uM relative to untreated control; type: functional
# [3] = target: T1, Alpha-1D adrenergic receptor (Rattus norvegicus, UniProt P23944); test: Antagonist activity at alpha-1D adrenergic receptor in SPF rat vas thoracic aorta assessed as inhibition of noradrenaline-induced contractions; conditions: read-out: pA2 (converted)
# T1 sequence (P23944 whole entry): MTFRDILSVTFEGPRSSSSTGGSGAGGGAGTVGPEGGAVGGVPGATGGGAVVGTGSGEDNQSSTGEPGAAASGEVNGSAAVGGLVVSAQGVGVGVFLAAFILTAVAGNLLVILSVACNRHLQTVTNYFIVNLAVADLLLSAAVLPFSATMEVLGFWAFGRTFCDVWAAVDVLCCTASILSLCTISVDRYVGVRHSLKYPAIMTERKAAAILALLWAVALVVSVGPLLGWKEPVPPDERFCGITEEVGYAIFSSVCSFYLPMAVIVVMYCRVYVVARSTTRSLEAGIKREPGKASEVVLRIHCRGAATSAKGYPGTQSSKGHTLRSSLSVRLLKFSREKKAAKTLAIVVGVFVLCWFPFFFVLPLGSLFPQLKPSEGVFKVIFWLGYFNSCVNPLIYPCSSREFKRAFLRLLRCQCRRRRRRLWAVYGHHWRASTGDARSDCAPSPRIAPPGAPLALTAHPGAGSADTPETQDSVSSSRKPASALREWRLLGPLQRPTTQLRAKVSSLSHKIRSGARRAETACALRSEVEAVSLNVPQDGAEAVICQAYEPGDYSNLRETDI
# Rattus norvegicus [4] = test: Antihypertensive activity in spontaneously hypertensive rat assessed as systolic arterial pressure at 80 mg/kg, po measured after 0 hrs by tail-cuff method (reference value: 186.10 +/- 4.55 mmHg); type: functional
# Rattus norvegicus [5] = test: Antihypertensive activity in spontaneously hypertensive rat assessed as reduction in mean arterial pressure at 80 mg/kg, po measured after 2 hrs by tail-cuff method; type: functional; design: scale not given: the % may be the effect or the level left
# Rattus norvegicus [6] = test: Antihypertensive activity in spontaneously hypertensive rat assessed as diastolic arterial pressure at 80 mg/kg, po measured after 0 hrs by tail-cuff method (reference value: 149.50 +/- 5.4 mmHg); type: functional
# Rattus norvegicus [7] = test: Effect on heart rate in spontaneously hypertensive rat assessed as heart rate level at 80 mg/kg, po measured after 4 hrs by tail-cuff method (reference value: 410.80 +/- 17.4 bpm); type: ADME, organism-based; conditions: in vivo
# Rattus norvegicus [8] = test: Antihypertensive activity in spontaneously hypertensive rat assessed as mean arterial pressure at 80 mg/kg, po measured after 2 hrs by tail-cuff method (reference value: 163 +/- 8.1 mmHg); type: functional
# Rattus norvegicus [9] = test: Antihypertensive activity in spontaneously hypertensive rat assessed as mean arterial pressure at 80 mg/kg, po measured after 6 hrs by tail-cuff method (reference value: 151.48 +/- 12.24 mmHg); type: functional
# Rattus norvegicus [10] = test: Antihypertensive activity in spontaneously hypertensive rat assessed as diastolic arterial pressure at 80 mg/kg, po measured after 6 hrs by tail-cuff method (reference value: 137.54 +/- 9.2 mmHg); type: functional
# Rattus norvegicus [11] = test: Antihypertensive activity in spontaneously hypertensive rat assessed as diastolic arterial pressure at 80 mg/kg, po measured after 4 hrs by tail-cuff method (reference value: 136.12 +/- 5.3 mmHg); type: functional
# Rattus norvegicus [12] = test: Effect on heart rate in spontaneously hypertensive rat assessed as heart rate level at 80 mg/kg, po measured after 2 hrs by tail-cuff method (reference value: 413.2 +/- 15.2 bpm); type: ADME, organism-based; conditions: in vivo
# Rattus norvegicus [13] = test: Effect on heart rate in spontaneously hypertensive rat assessed as heart rate level at 80 mg/kg, po measured after 8 hrs by tail-cuff method (reference value: 412.77 +/- 11.3 bpm); type: ADME, organism-based; conditions: in vivo
# Rattus norvegicus [14] = test: Antihypertensive activity in spontaneously hypertensive rat assessed as mean arterial pressure at 80 mg/kg, po measured after 8 hrs by tail-cuff method (reference value: 153.55 +/- 11.43 mmHg); type: functional
# Rattus norvegicus [15] = test: Effect on heart rate in spontaneously hypertensive rat assessed as heart rate level at 80 mg/kg, po measured after 0 hrs by tail-cuff method (reference value: 413.17 +/- 10.5 bpm); type: ADME, organism-based; conditions: in vivo
# Rattus norvegicus [16] = test: Antihypertensive activity in spontaneously hypertensive rat assessed as mean arterial pressure at 80 mg/kg, po measured after 4 hrs by tail-cuff method (reference value: 150.30 +/- 9.26 mmHg); type: functional
# Rattus norvegicus [17] = test: Antihypertensive activity in spontaneously hypertensive rat assessed as systolic arterial pressure at 80 mg/kg, po measured after 4 hrs by tail-cuff method (reference value: 178.66 +/- 17.18 mmHg); type: functional
# Rattus norvegicus [18] = test: Antihypertensive activity in spontaneously hypertensive rat assessed as systolic arterial pressure at 80 mg/kg, po measured after 1 hr by tail-cuff method (reference value: 185.35 +/- 10.30 mmHg); type: functional
# Rattus norvegicus [19] = test: Effect on heart rate in spontaneously hypertensive rat assessed as heart rate level at 80 mg/kg, po measured after 1 hr by tail-cuff method (reference value: 415.25 +/- 14.7 bpm); type: ADME, organism-based; conditions: in vivo
# Rattus norvegicus [20] = test: Antihypertensive activity in spontaneously hypertensive rat assessed as systolic arterial pressure at 80 mg/kg, po measured after 6 hrs by tail-cuff method (reference value: 179.36 +/- 18.33 mmHg); type: functional
# Rattus norvegicus [21] = test: Antihypertensive activity in spontaneously hypertensive rat assessed as systolic arterial pressure at 80 mg/kg, po measured after 8 hrs by tail-cuff method (reference value: 179.42 +/- 13.70 mmHg); type: functional
# Rattus norvegicus [22] = test: Antihypertensive activity in spontaneously hypertensive rat assessed as systolic arterial pressure at 80 mg/kg, po measured after 2 hrs by tail-cuff method (reference value: 189.20 +/- 12.31 mmHg); type: functional
# Rattus norvegicus [23] = test: Effect on heart rate in spontaneously hypertensive rat assessed as heart rate level at 80 mg/kg, po measured after 6 hrs by tail-cuff method (reference value: 411.12 +/- 19.1 bpm); type: ADME, organism-based; conditions: in vivo
# Rattus norvegicus [24] = test: Antihypertensive activity in spontaneously hypertensive rat assessed as diastolic arterial pressure at 80 mg/kg, po measured after 8 hrs by tail-cuff method (reference value: 140.61 +/- 10.3 mmHg); type: functional
# Rattus norvegicus [25] = test: Antihypertensive activity in spontaneously hypertensive rat assessed as diastolic arterial pressure at 80 mg/kg, po measured after 2 hrs by tail-cuff method (reference value: 149.90 +/- 6 mmHg); type: functional
# Rattus norvegicus [26] = test: Antihypertensive activity in spontaneously hypertensive rat assessed as mean arterial pressure at 80 mg/kg, po measured after 1 hr by tail-cuff method (reference value: 160 +/- 9.97 mmHg); type: functional
# Rattus norvegicus [27] = test: Antihypertensive activity in spontaneously hypertensive rat assessed as diastolic arterial pressure at 80 mg/kg, po measured after 1 hr by tail-cuff method (reference value: 147.33 +/- 9.8 mmHg); type: functional
# Rattus norvegicus [28] = test: Antihypertensive activity in spontaneously hypertensive rat assessed as mean arterial pressure at 80 mg/kg, po measured after 0 hrs by tail-cuff method (reference value: 161.70 +/- 5.12 mmHg); type: functional
compound,measurement,setting,value
COc1cc2c(cc1OCC(O)CN1CCN(C(=O)C3CCCO3)CC1)COC(C)C2=O (stereo not drawn),inhibition at 100 µM,Thoracic aorta [1],40.1%
same,inhibition at 10 µM,Thoracic aorta [2],33.9%
CCOc1ccccc1N1CCN(CC(O)COc2c(OC)ccc3c2COC(C)C3=O)CC1 (stereo not drawn),inhibition at 100 µM,Thoracic aorta [1],36.1%
same,inhibition at 10 µM,Thoracic aorta [2],23.1%
CCOc1ccccc1N1CCN(CC(O)COc2cc3c(cc2OC)C(=O)C(C)OC3)CC1 (stereo not drawn),inhibition at 100 µM,Thoracic aorta [1],23.3%
same,inhibition at 10 µM,Thoracic aorta [2],11.6%
COc1cc2c(cc1OCC(O)CN1CCN(c3ccccc3)CC1)C(=O)C(C)OC2 (stereo not drawn),inhibition at 100 µM,Thoracic aorta [1],46.4%
same,inhibition at 10 µM,Thoracic aorta [2],28.6%
COc1ccc2c(c1OCC(O)CN1CCN(c3ccccc3)CC1)COC(C)C2=O (stereo not drawn),inhibition at 100 µM,Thoracic aorta [1],59.7%
same,Kb,[3],296 nM
same,inhibition at 10 µM,Thoracic aorta [2],37.8%
COc1ccc2c(c1OCC(O)CN1CCN(C(=O)C3CCCO3)CC1)COC(C)C2=O (stereo not drawn),inhibition at 100 µM,Thoracic aorta [1],45.1%
same,Kb,[3],340 nM
same,inhibition at 10 µM,Thoracic aorta [2],31.4%
COc1ccccc1N1CCN(CC(O)COc2cccc3ccccc23)CC1 (stereo not drawn) [NAFTOPIDIL],Activity,Rattus norvegicus [4],181.92 mmHg
same,inhibition at 100 µM,Thoracic aorta [1],65.2%
same,Activity,Rattus norvegicus [5],16.1%
same,Activity,Rattus norvegicus [6],152.14 mmHg
same,Activity,Rattus norvegicus [7],409.22 bpm
same,Activity,Rattus norvegicus [8],135.94 mmHg
same,Activity,Rattus norvegicus [9],145.79 mmHg
same,Activity,Rattus norvegicus [10],139.57 mmHg
same,Kb,[3],143 nM
same,Activity,Rattus norvegicus [11],134.31 mmHg
same,inhibition at 10 µM,Thoracic aorta [2],47.5%
same,Activity,Rattus norvegicus [12],406.12 bpm
same,Activity,Rattus norvegicus [13],417.25 bpm
same,Activity,Rattus norvegicus [14],152.21 mmHg
same,Activity,Rattus norvegicus [15],415.15 bpm
same,Activity,Rattus norvegicus [16],140.76 mmHg
same,Activity,Rattus norvegicus [17],153.65 mmHg
same,Activity,Rattus norvegicus [18],161.36 mmHg
same,Activity,Rattus norvegicus [19],412.14 bpm
same,Activity,Rattus norvegicus [20],158.22 mmHg
same,Activity,Rattus norvegicus [21],170.5 mmHg
same,Activity,Rattus norvegicus [22],148.13 mmHg
same,Activity,Rattus norvegicus [23],411.19 bpm
same,Activity,Rattus norvegicus [24],143.06 mmHg
same,Activity,Rattus norvegicus [25],129.85 mmHg
same,Activity,Rattus norvegicus [26],147.25 mmHg
same,Activity,Rattus norvegicus [27],140.19 mmHg
same,Activity,Rattus norvegicus [28],162.07 mmHg
COc1cc2c(cc1OCC(O)CN1CCN(C(=O)c3ccco3)CC1)C(=O)C(C)OC2 (stereo not drawn),inhibition at 100 µM,Thoracic aorta [1],44.9%
same,Kb,[3],1550 nM
same,inhibition at 10 µM,Thoracic aorta [2],33.4%
COc1ccccc1N1CCN(CC(O)COc2c(OC)ccc3c2COC(C)C3=O)CC1 (stereo not drawn),inhibition at 100 µM,Thoracic aorta [1],24.4%
same,inhibition at 10 µM,Thoracic aorta [2],13.6%
COc1cc2c(cc1OCC(O)CN1CCN(c3ccccc3OC)CC1)COC(C)C2=O (stereo not drawn),inhibition at 100 µM,Thoracic aorta [1],50.4%
same,Kb,[3],2200 nM
same,inhibition at 10 µM,Thoracic aorta [2],41.7%
COc1cc2c(cc1OCC(O)CN1CCN(c3ccccc3OC)CC1)C(=O)C(C)OC2 (stereo not drawn),inhibition at 100 µM,Thoracic aorta [1],44.6%
same,inhibition at 10 µM,Thoracic aorta [2],23.1%
CCOc1ccccc1N1CCN(CC(O)COc2cc3c(cc2OC)COC(C)C3=O)CC1 (stereo not drawn),inhibition at 100 µM,Thoracic aorta [1],55.3%
same,Kb,[3],485 nM
same,inhibition at 10 µM,Thoracic aorta [2],25.4%
COc1cc2c(cc1OCC(O)CN1CCN(c3ccccc3Cl)CC1)COC(C)C2=O (stereo not drawn),inhibition at 100 µM,Thoracic aorta [1],32.4%
same,inhibition at 10 µM,Thoracic aorta [2],27%
COc1cc2c(cc1OCC(O)CN1CCN(C(=O)c3ccco3)CC1)COC(C)C2=O (stereo not drawn),inhibition at 100 µM,Thoracic aorta [1],22.8%
same,inhibition at 10 µM,Thoracic aorta [2],17.8%
COc1ccc2c(c1OCC(O)CN1CCN(c3ccccc3Cl)CC1)COC(C)C2=O (stereo not drawn),inhibition at 100 µM,Thoracic aorta [1],29.1%
same,inhibition at 10 µM,Thoracic aorta [2],18.2%
COc1cc2c(cc1OCC(O)CN1CCN(c3ccccc3Cl)CC1)C(=O)C(C)OC2 (stereo not drawn),inhibition at 100 µM,Thoracic aorta [1],42.4%
same,inhibition at 10 µM,Thoracic aorta [2],30.2%
COc1ccc2c(c1OCC(O)CN1CCN(C(=O)c3ccco3)CC1)COC(C)C2=O (stereo not drawn),inhibition at 100 µM,Thoracic aorta [1],31.9%
same,inhibition at 10 µM,Thoracic aorta [2],20.8%
COc1cc2c(cc1OCC(O)CN1CCN(c3ccccc3)CC1)COC(C)C2=O (stereo not drawn),inhibition at 100 µM,Thoracic aorta [1],48.1%
same,Kb,[3],621 nM
same,inhibition at 10 µM,Thoracic aorta [2],39.2%
